From patent publication US9249163B2, “PDE10a inhibitors for the treatment of type II diabetes” (Janssen Pharmaceutica, NV, priority 2013, dated 2016)
Structures can show the parent of a compound that is named as a salt.

Tests used:
[1] = target: Rat recombinant PDE10a (rPDE10a) (Rattus norvegicus (Rat), UniProt Q9QYJ6); experiment: In vitro assay PDE10a (rat recombinant PDE10a, SPA); assay type: biochemical; settings: 60 nM cAMP, 60 min at rt, read-out: rPDE10a2 IC50
Method: Rat recombinant PDE10a (rPDE10a) was expressed in Sf9 cells using a recombinant rPDE10a baculovirus construct. Cells were harvested after 48 h of infection and the rPDE10a protein was purified by metal chelate chromatography on Ni-sepharose 6FF. Tested compounds were dissolved and diluted in 100% DMSO to a concentration 100 fold of the final concentration in the assay. Compound dilutions (0.4 μL) were added in 384 well plates to 20 μL of incubation buffer (50 mM Tris pH 7.8, 8.3 mM MgCl2, 1.7 mM EGTA). 10 μL of rPDE10a enzyme in incubation buffer was added and the reaction was started by addition of 10 μL substrate to a final concentration of 60 nM cAMP and 0.008 μCi ^3H-cAMP. The reaction was incubated for 60 min at rt. After incubation, the reaction was stopped with 20 μL of 17.8 mg/mL PDE SPA beads. After sedimentation of the beads during 30 min the radioactivity was measured in a Perkin Elmer Topcount scintillation counter and results were expressed as cpm. For blank values the enzyme was omitted from the reaction and replaced by incubation buffer. Control values were obtained by addition of a final concentration of 1% DMSO instead of compound.

[2] = target: Human recombinant PDE10A2 (Homo sapiens (Human), UniProt Q9Y233); experiment: In vitro hPDE10a (human recombinant PDE10A2, scintillation proximity assay); assay type: biochemical; settings: human recombinant PDE10A2, 60 nM cAMP, 60 min at room temperature; read-out: hPDE10a2 IC50
Method: Human recombinant PDE10A2 was expressed in Sf9 cells, using a recombinant baculovirus construct containing the full length sequence containing a 6×His sequence following the start Met to allow metal affinity purification of the recombinant protein. Cells were harvested and the phosphodiesterase protein was purified by metal chelate chromatography on Ni-sepharose 6FF.
The affinity of the compounds of Formula (I) for phophodiesterases (PDE) was measured by a scintillation proximity assay (SPA). PDE Yttrium Silicate SPA beads allow PDE activity to be measured by direct binding of the primary phosphate groups of non-cyclic AMP or GMP to the beads via a complex iron chelation mechanism. The amount of bound tritiated product ([^3H]-AMP) is measured by liquid scintillation counting.
The compounds were dissolved and diluted in 100% DMSO in polystyrene plates to a concentration of 100-fold the final concentration in the assay. Human PDE10A enzyme solution (10 μL) was added to 20 μL, of incubation buffer (50 mM Tris pH 7.8, 8.3 mM MgCl2, 1.7 mM EGTA), 10 μL, substrate solution consisting of a mixture of non-tritiated and tritiated substrate (60 nM cAMP, 0.008 μCi ^3H-cAMP), and 0.4 μL, compound in 100% DMSO in a 384-well plate, and incubated for 60 min at room temperature. After incubation, the reaction was stopped with 20 μL, of stop solution, consisting of PDE SPA beads (17.8 mg beads/mL in 18 mM zinc sulphate). After sedimentation of the beads for 30 min, the radioactivity was measured in a Perkin Elmer Topcount scintillation counter and results were expressed as cpm. To measure the low control, no enzyme was added to the reaction mixture.
Data were calculated as the percentage of inhibition of total activity measured in the absence of test compound (% control).

Human recombinant PDE10A2, sequence (Q9Y233 267-1055): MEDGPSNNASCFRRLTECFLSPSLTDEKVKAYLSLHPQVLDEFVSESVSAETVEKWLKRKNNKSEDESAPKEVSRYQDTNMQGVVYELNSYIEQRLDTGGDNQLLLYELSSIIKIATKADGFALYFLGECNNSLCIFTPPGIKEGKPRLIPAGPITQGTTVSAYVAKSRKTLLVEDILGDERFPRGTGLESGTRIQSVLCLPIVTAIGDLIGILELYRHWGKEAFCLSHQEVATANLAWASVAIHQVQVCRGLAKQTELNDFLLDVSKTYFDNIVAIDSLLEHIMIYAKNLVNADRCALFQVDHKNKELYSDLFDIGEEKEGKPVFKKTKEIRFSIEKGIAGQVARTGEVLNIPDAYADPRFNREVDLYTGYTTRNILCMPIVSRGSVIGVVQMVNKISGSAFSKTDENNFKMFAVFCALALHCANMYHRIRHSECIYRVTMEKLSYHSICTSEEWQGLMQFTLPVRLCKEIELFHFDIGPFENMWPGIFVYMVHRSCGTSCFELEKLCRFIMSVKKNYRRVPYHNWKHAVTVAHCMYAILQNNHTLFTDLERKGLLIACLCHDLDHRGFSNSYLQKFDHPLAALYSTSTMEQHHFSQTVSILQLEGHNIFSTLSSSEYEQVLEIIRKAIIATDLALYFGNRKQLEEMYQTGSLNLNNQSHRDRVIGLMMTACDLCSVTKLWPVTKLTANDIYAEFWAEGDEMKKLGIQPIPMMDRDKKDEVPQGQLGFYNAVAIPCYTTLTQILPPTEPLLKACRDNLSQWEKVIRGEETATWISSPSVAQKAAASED
Rat recombinant PDE10a (rPDE10a), sequence (Q9QYJ6 whole entry): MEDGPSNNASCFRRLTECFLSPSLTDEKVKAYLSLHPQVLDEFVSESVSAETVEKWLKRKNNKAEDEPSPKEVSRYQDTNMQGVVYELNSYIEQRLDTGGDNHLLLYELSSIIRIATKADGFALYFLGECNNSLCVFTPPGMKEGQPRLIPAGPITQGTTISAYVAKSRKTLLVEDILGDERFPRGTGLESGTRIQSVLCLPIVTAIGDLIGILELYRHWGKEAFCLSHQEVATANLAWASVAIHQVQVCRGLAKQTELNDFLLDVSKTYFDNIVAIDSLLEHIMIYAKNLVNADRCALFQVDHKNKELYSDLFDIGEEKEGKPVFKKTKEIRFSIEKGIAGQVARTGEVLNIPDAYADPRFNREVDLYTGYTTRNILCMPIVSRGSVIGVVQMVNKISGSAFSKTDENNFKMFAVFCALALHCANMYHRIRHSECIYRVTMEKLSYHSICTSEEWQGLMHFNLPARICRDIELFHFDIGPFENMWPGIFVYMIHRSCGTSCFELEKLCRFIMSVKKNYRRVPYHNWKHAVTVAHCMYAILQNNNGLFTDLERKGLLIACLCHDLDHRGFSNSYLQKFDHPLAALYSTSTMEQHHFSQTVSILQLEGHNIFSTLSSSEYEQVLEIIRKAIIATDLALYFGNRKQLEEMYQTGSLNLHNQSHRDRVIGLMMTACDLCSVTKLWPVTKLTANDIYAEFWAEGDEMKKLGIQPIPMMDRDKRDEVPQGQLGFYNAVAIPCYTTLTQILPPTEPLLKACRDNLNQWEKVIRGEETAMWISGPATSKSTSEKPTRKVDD

Row | SMILES | IC50 [1] [nM] | IC50 [2] [nM]
1 | COCCOCCOc1ccc(-c2cnc(N3CCOCC3)c3nc(/C=C/c4ccc5ccccc5n4)cn23)cc1 [Cpd 18, (E)-4-(5-(4-(2-(2-Methoxyethoxy)ethoxy)phenyl)-2-(2-(quinolin-2-yl)vinyl)imidazo[1,2-a]pyrazin-8-yl)morpholine] | 102 | 83
2 | CN1C(=O)N(C)S(=O)(=O)c2cc(-c3cnc(N4CCOCC4)c4nc(/C=C/c5ccc6ccccc6n5)cn34)ccc21 [Cpd 20, (E)-2,4-Dimethyl-7-(8-morpholino-2-(2-(quinolin-2-yl)vinyl)imidazo[1,2-a]pyrazin-5-yl)-2H-benzo[e][1,2,4]thiadiazin-3(4H)-one 1,1-dioxide] | 26 | 8
3 | O=c1[nH]cnn1-c1ccc(-c2cnc(N3CCOCC3)c3nc(CCc4ccc5ccccc5n4)cn23)cc1 [Cpd 21, 1-(4-(8-Morpholino-2-(2-(quinolin-2-yl)ethyl)imidazo[1,2-a]pyrazin-5-yl)phenyl)-1H-1,2,4-triazol-5(4H)-one] | 31 | 25
4 | O=C(O)CCNc1ccc(-c2cnc(N3CCOCC3)c3nc(CCc4ccc5ccccc5n4)cn23)cc1 [Cpd 23, 3-(4-(8-Morpholino-2-(2-(quinolin-2-yl)ethyl)imidazo[1,2-a]pyrazin-5-yl)phenylamino)propanoic acid trifluoroacetic acid salt] | 6 | 8
5 | CN1C(=O)NS(=O)(=O)c2cc(-c3cnc(N4CCOCC4)c4nc(/C=C/c5ccc6ccccc6n5)cn34)ccc21 [Cpd 24, (E)-4-Methyl-7-(8-morpholino-2-(2-(quinolin-2-yl)vinyl)imidazo[1,2-a]pyrazin-5-yl)-2H-benzo[e][1,2,4]thiadiazin-3(4H)-one 1,1-dioxide trifluoroacetic acid salt] | 5 | 3
6 | O=C1NC(=O)C(c2ccc(-c3cnc(N4CCOCC4)c4nc(CCc5ccc6ccccc6n5)cn34)cc2)O1 (stereo not shown) [Cpd 26, 5-(4-(8-Morpholino-2-(2-(quinolin-2-yl)ethyl)imidazo[1,2-a]pyrazin-5-yl)phenyl)oxazolidine-2,4-dione trifluoroacetic acid salt] | 8 | 6
7 | COCCOCCOc1ccc(-c2cnc(N3CCOCC3)c3nc(CCc4ccc5ccccc5n4)cn23)cc1 [Cpd 31, 4-(5-(4-(2-(2-Methoxyethoxy)ethoxy)phenyl)-2-(2-(quinolin-2-yl)ethyl)imidazo[1,2-a]pyrazin-8-yl)morpholine] | 115 | 1
8 | O=C(O)CCC(=O)Nc1ccc(-c2cnc(N3CCOCC3)c3nc(/C=C/c4ccc5ccccc5n4)cn23)cc1 [Cpd 32] | 6 | 12
9 | Cn1nc(-c2ccc(-c3cnc(N4CCOCC4)c4nc(CCc5ccc6ccccc6n5)cn34)cc2)[nH]c1=O [Cpd 33, 1-Methyl-3-[4-[8-(morpholin-4-yl)-2-[2-(quinolin-2-yl)ethyl]imidazo[1,2-a]pyrazin-5-yl]phenyl]-4,5-dihydro-1H-1,2,4-triazol-5-one] | 23 | 21
10 | CC(C)[C@H](NC(=O)c1ccc(-c2cnc(N3CCOCC3)c3nc(CCc4ccc5ccccc5n4)cn23)cc1)C(=O)O [Cpd 34, (S)-3-Methyl-2-(4-(8-morpholino-2-(2-(quinolin-2-yl)ethyl)imidazo[1,2-a]pyrazin-5-yl)benzamido)butanoic acid trifluoroacetic acid salt] | 13 | 5
11 | O=C(O)[C@@H]1CCCN1C(=O)c1ccc(-c2cnc(N3CCOCC3)c3nc(CCc4ccc5ccccc5n4)cn23)cc1 [Cpd 35, (S)-1-(4-(8-Morpholino-2-(2-(quinolin-2-yl)ethyl)imidazo[1,2-a]pyrazin-5-yl)benzoyl)pyrrolidine-2-carboxylic acid trifluoroacetic acid salt] | 12 | 7
12 | c1ccc2nc(CCc3cn4c(-c5ccc(Sc6cnn[nH]6)cc5)cnc(N5CCOCC5)c4n3)ccc2c1 [Cpd 36, 4-(5-(4-((1H-1,2,3-triazol-5-yl)thio)phenyl)-2-(2-(quinolin-2-yl)ethyl)imidazo[1,2-a]pyrazin-8-yl)morpholine] | 23 | 17
13 | O=C(O)CCNC(=O)c1ccc(-c2cnc(N3CCOCC3)c3nc(CCc4ccc5ccccc5n4)cn23)cc1 [Cpd 38, 3-(4-(8-Morpholino-2-(2-(quinolin-2-yl)ethyl)imidazo[1,2-a]pyrazin-5-yl)benzamido)propanoic acid] | 7 | 2
14 | CS(=O)(=O)NC(=O)Nc1ccc(-c2cnc(N3CCOCC3)c3nc(CCc4ccc5ccccc5n4)cn23)cc1 [Cpd 40, N-((4-(8-Morpholino-2-(2-(quinolin-2-yl)ethyl)imidazo[1,2-a]pyrazin-5-yl)phenyl)carbamoyl)methanesulfonamide] | 20 | 10
15 | COCOc1c(C)cc(-c2cnc(N3CCOCC3)c3nc(/C=C/c4ccc5ccccc5n4)cn23)cc1C [Cpd 41, (E)-4-(5-(4-(methoxymethoxy)-3,5-dimethylphenyl)-2-(2-(quinolin-2-yl)vinyl)imidazo[1,2-a]pyrazin-8-yl)morpholine] | 21 | 19
16 | CN1c2cc(-c3cnc(N4CCOCC4)c4nc(/C=C/c5ccc6ccccc6n5)cn34)ccc2NS1(=O)=O [Cpd 43, (E)-1-Methyl-6-(8-morpholino-2-(2-(quinolin-2-yl)vinyl)imidazo[1,2-a]pyrazin-5-yl)-1,3-dihydrobenzo[c][1,2,5]thiadiazole 2,2-dioxide trifluoroacetic acid salt] | 7 | 3

The remaining lines, values ahead:

Row | IC50 [1] [nM] | IC50 [2] [nM] | SMILES
17 | 15 | 18 | CN1C(=O)Nc2ccc(-c3cnc(N4CCOCC4)c4nc(/C=C/c5ccc6ccccc6n5)cn34)cc2S1(=O)=O [Cpd 19, (E)-2-Methyl-7-(8-morpholino-2-(2-(quinolin-2-yl)vinyl)imidazo[1,2-a]pyrazin-5-yl)-2H-benzo[e][1,2,4]thiadiazin-3(4H)-one 1,1-dioxide]
18 | 9 | 9 | O=C(O)CCNc1ccc(-c2cnc(N3CCOCC3)c3nc(/C=C/c4ccc5ccccc5n4)cn23)cc1 [Cpd 22, (E)-3-(4-(8-Morpholino-2-(2-(quinolin-2-yl)vinyl)imidazo[1,2-a]pyrazin-5-yl)phenylamino)propanoic acid trifluoroacetic acid salt]
19 | 3 | 2 | CS(=O)(=O)NC(=O)c1cncc(-c2cnc(N3CCOCC3)c3nc(/C=C/c4ccc5ccccc5n4)cn23)c1 [Cpd 25, (E)-N-(Methylsulfonyl)-5-(8-morpholino-2-(2-(quinolin-2-yl)vinyl)imidazo[1,2-a]pyrazin-5-yl)nicotinamide]
20 | 2 | 2 | O=C(O)c1cncc(-c2cnc(N3CCOCC3)c3nc(/C=C/c4ccc5ccccc5n4)cn23)c1 [Cpd 27, (E)-5-(8-Morpholino-2-(2-(quinolin-2-yl)vinyl)imidazo[1,2-a]pyrazin-5-yl)nicotinic acid]
21 | 15 | 24 | O=C(O)CNc1ccc(-c2cnc(N3CCOCC3)c3nc(/C=C/c4ccc5ccccc5n4)cn23)cc1 [Cpd 29, (E)-2-(4-(8-Morpholino-2-(2-(quinolin-2-yl)vinyl)imidazo[1,2-a]pyrazin-5-yl)phenylamino)acetic acid trifluoroacetic acid salt]
22 | 8 | 5 | O=C(O)CCNC(=O)c1ccc(-c2cnc(N3CCOCC3)c3nc(/C=C/c4ccc5ccccc5n4)cn23)cc1 [Cpd 39, (E)-3-(4-(8-Morpholino-2-(2-(quinolin-2-yl)vinyl)imidazo[1,2-a]pyrazin-5-yl)benzamido)propanoic acid]
23 | 2 | 1 | O=C1NS(=O)(=O)c2ccc(-c3cnc(N4CCOCC4)c4nc(/C=C/c5ccc6ccccc6n5)cn34)cc21 [Cpd 42, (E)-5-(8-Morpholino-2-(2-(quinolin-2-yl)vinyl)imidazo[1,2-a]pyrazin-5-yl)benzo[d]isothiazol-3(2H)-one 1,1-dioxide]
